Active and inactive are the calls of the source.
Key:
T47D = experiment: Cytotoxicity against human T47D cells assessed as inhbition of cell growth measured after 48 hrs by CCK-8 method; type: functional, cell-based
MDA-MB-231 [1] = experiment: Cytotoxicity against human MDA-MB-231 cells assessed as inhbition of cell growth measured after 48 hrs by CCK-8 method; type: functional, cell-based; conditions: MDA-MB-231, 48 h
MDA-MB-231 [2] = experiment: Cytotoxicity against 12 hrs BODIPY-TZ treated human MDA-MB-231 cells assessed as inhbition of cell growth measured after 48 hrs by CCK-8 method; type: functional, cell-based
MCF7 [3] = experiment: Cytotoxicity against 12 hrs BODIPY-TZ treated human MCF7 cells assessed as inhbition of cell growth measured after 48 hrs by CCK-8 method; type: functional, cell-based
[4] = Drug uptake in 12 hrs BODIPY-TZ treated human […] cells assessed as strong fluorescence at 600 nM measured after 30 mins by fluorescence microscopy analysis; type: ADME, cell-based; conditions: t47d, 0.5 h, 0.6 µM
[5] = molecular target: T1, von Hippel-Lindau disease tumor suppressor/Bromodomain-containing protein 4 (Homo sapiens, UniProt O60885+P40337); experiment: PROTAC activity at BRD4/VHL E3 ligase in human T47D cells assessed as decrease in BRD4 expression at upto 2.0 uM incubated for 48 hrs by Western blot analysis; type: cell-based
T1 sequence (P40337 whole entry, looked up, other chains not shown): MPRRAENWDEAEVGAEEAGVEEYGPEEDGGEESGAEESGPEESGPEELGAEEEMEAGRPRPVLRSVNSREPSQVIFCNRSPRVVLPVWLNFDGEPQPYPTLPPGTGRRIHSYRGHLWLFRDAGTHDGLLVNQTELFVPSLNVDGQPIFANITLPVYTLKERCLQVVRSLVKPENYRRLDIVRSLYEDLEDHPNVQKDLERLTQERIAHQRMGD

[6] = molecular target: T1, von Hippel-Lindau disease tumor suppressor/Bromodomain-containing protein 4; experiment: PROTAC activity at BRD4/VHL E3 ligase in human MDA-MB-231 cells assessed as decrease in BRD4 expression at upto 2.0 uM incubated for 48 hrs by Western blot analysis; type: cell-based
[7] = molecular target: T1, von Hippel-Lindau disease tumor suppressor/Bromodomain-containing protein 4; experiment: PROTAC activity at BRD4/VHL E3 ligase in human MCF7 cells assessed as decrease in BRD4 expression at upto 2.0 uM incubated for 48 hrs by Western blot analysis; type: cell-based
[8] = molecular target: T1, von Hippel-Lindau disease tumor suppressor/Bromodomain-containing protein 4; experiment: PROTAC activity at BRD4/VHL E3 ligase in 12 hrs BODIPY-TZ treated human T47D cells assessed as reduction in BRD4 expression at upto 2.0 uM incubated for 48 hrs by Western blot analysis; type: cell-based
[9] = molecular target: T1, von Hippel-Lindau disease tumor suppressor/Bromodomain-containing protein 4; experiment: PROTAC activity at BRD4/VHL E3 ligase in 12 hrs BODIPY-TZ treated human MDA-MB-231 cells assessed as reduction in BRD4 expression at upto 2.0 uM incubated for 48 hrs by Western blot analysis; type: cell-based
[10] = molecular target: T1, von Hippel-Lindau disease tumor suppressor/Bromodomain-containing protein 4; experiment: PROTAC activity at BRD4/VHL E3 ligase in 12 hrs BODIPY-TZ treated human MCF7 cells assessed as reduction in BRD4 expression at upto 2.0 uM incubated for 48 hrs by Western blot analysis; type: cell-based
[11] = molecular target: T2, von Hippel-Lindau disease tumor suppressor/Bromodomain-containing protein 3 (Homo sapiens) (UniProt Q15059+P40337); experiment: PROTAC activity at BRD3/VHL E3 ligase in 12 hrs BODIPY-TZ treated human T47D cells assessed as reduction in BRD3 expression at upto 2.0 uM incubated for 48 hrs by Western blot analysis; type: cell-based
T2 sequence (P40337 whole entry partner): as the sequence (P40337 whole entry, looked up, other chains not shown) above
T2 sequence (Q15059 2-726 limits assumed): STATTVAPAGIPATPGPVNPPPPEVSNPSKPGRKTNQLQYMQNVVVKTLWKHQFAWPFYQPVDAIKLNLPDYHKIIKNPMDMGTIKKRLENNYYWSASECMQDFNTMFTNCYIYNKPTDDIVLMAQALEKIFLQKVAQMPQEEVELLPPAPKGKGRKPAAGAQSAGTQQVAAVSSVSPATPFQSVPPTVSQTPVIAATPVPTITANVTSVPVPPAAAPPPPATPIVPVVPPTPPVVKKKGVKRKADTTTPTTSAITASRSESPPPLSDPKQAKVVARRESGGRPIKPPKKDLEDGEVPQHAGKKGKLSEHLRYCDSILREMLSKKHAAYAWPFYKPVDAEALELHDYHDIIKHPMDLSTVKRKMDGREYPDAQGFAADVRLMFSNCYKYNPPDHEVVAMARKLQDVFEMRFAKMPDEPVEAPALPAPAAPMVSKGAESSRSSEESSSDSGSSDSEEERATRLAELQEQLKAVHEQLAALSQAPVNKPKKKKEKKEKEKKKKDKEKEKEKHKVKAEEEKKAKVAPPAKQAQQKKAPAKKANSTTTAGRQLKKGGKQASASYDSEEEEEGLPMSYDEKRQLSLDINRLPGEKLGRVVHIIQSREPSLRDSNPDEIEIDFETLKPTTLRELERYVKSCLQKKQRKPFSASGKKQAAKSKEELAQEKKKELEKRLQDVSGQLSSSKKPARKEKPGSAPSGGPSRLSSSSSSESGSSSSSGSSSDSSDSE

[12] = molecular target: T2, von Hippel-Lindau disease tumor suppressor/Bromodomain-containing protein 3 (Homo sapiens); experiment: PROTAC activity at BRD3/VHL E3 ligase in 12 hrs BODIPY-TZ treated human MDA-MB-231 cells assessed as reduction in […] expression at upto 2.0 uM incubated for 48 hrs by Western blot analysis; type: cell-based
[13] = molecular target: T2, von Hippel-Lindau disease tumor suppressor/Bromodomain-containing protein 3 (Homo sapiens); experiment: PROTAC activity at BRD3/VHL E3 ligase in 12 hrs BODIPY-TZ treated human MCF7 cells assessed as reduction in BRD3 expression at upto 2.0 uM incubated for 48 hrs by Western blot analysis; type: cell-based
[14] = molecular target: T1, von Hippel-Lindau disease tumor suppressor/Bromodomain-containing protein 4; experiment: PROTAC activity at BRD4/VHL E3 ligase in human T47D cells assessed as induction of degradation of intracellular BRD4 at 200 nM incubated for 48 hrs by immunofluorescence staining assay; type: cell-based
[15] = molecular target: T1, von Hippel-Lindau disease tumor suppressor/Bromodomain-containing protein 4; experiment: PROTAC activity at BRD4/VHL E3 ligase in human MDA-MB-231 cells assessed as induction of degradation of intracellular BRD4 at 200 nM incubated for 48 hrs by immunofluorescence staining assay; type: cell-based
[16] = molecular target: T1, von Hippel-Lindau disease tumor suppressor/Bromodomain-containing protein 4; experiment: PROTAC activity at BRD4/VHL E3 ligase in 12 hrs BODIPY-TZ treated human T47D cells assessed as induction of degradation of BRD4 at upto 1000 nM incubated for 48 hrs in presence of MG132 by immunofluorescence staining assay; type: cell-based
[17] = molecular target: T1, von Hippel-Lindau disease tumor suppressor/Bromodomain-containing protein 4; experiment: PROTAC activity at BRD4/VHL E3 ligase in 12 hrs BODIPY-TZ treated human T47D cells assessed as induction of degradation of BRD4 at upto 1000 nM incubated for 48 hrs in presence of MLN4924 by immunofluorescence staining assay; type: cell-based
[18] = molecular target: T1, von Hippel-Lindau disease tumor suppressor/Bromodomain-containing protein 4; experiment: PROTAC activity at BRD4/VHL E3 ligase in 12 hrs BODIPY-TZ treated human T47D cells assessed as degradation of BRD4 expression incubated for 48 hrs by Western blot analysis; type: cell-based
[19] = molecular target: T1, von Hippel-Lindau disease tumor suppressor/Bromodomain-containing protein 4; experiment: PROTAC activity at BRD4/VHL E3 ligase in 12 hrs BODIPY-TZ treated human MCF7 cells assessed as degradation of BRD4 expression incubated for 48 hrs by Western blot analysis; type: cell-based
[20] = molecular target: T1, von Hippel-Lindau disease tumor suppressor/Bromodomain-containing protein 4; experiment: PROTAC activity at BRD4/VHL E3 ligase in 12 hrs BODIPY-TZ treated human T47D cells assessed as suppression of c-Myc expression incubated for 48 hrs by Western blot analysis; type: cell-based
[21] = molecular target: T1, von Hippel-Lindau disease tumor suppressor/Bromodomain-containing protein 4; experiment: PROTAC activity at BRD4/VHL E3 ligase in 12 hrs BODIPY-TZ treated human MDA-MB-231 cells assessed as suppression of c-Myc expression incubated for 48 hrs by Western blot analysis; type: cell-based
[22] = molecular target: T1, von Hippel-Lindau disease tumor suppressor/Bromodomain-containing protein 4; experiment: PROTAC activity at BRD4/VHL E3 ligase in 12 hrs BODIPY-TZ treated human T47D cells assessed as activation of caspase-3 expression incubated for 48 hrs by Western blot analysis; type: cell-based
MCF7 [23] = experiment: Antitumor activity against IR808-TZ treated human MCF7 cells xenografted in BALB/c nude mouse assessed as tumor growth inhibition at 20 mg/kg measured after 16 days; type: functional, organism-based; conditions: time 16.0 day
MCF7 [24] = experiment: Antitumor activity against human MCF7 cells xenografted in BALB/c nude mouse assessed as fold increase in tumor volume at 20 mg/kg measured at day 23 post injection; type: functional; conditions: time 23 day
[25] = Toxicity in BALB/c nude mouse assessed as animal death at 10 mg/kg measured after 16 days in presence of IR808-TZ; type: organism-based; conditions: in vivo, 384 h, time 16 day
[26] = molecular target: T1, von Hippel-Lindau disease tumor suppressor/Bromodomain-containing protein 4; experiment: In vivo PROTAC activity at BRD4/VHL E3 ligase in BALB/c nude mouse xenografted with human MCF7 cells assessed as reduction in BRD4 protein level in tumor 20 mg/kg measured after 48 hrs by Western blot analysis; type: functional, organism-based
[27] = molecular target: T1, von Hippel-Lindau disease tumor suppressor/Bromodomain-containing protein 4; experiment: In vivo PROTAC activity at BRD4/VHL E3 ligase in BALB/c nude mouse xenografted with human MCF7 cells assessed as reduction in BRD4 protein level in tumor 10 mg/kg measured after 48 hrs in presence of IR808-TZ by Western blot analysis; type: functional, organism-based
MCF7 [28] = experiment: Antitumor activity against human MCF7 cells xenografted in BALB/c nude mouse assessed as apoptosis at 20 mg/kg measured after 48 hrs by Western blot analysis; type: functional, organism-based
MCF7 [29] = experiment: Antitumor activity against human MCF7 cells xenografted in BALB/c nude mouse assessed as apoptosis at 20 mg/kg measured after 48 hrs in presence of IR808-TZ by Western blot analysis; type: functional, organism-based

CC1=CC(C)=[N+]2C1=C(c1cccc(-c3nnc(C)nn3)c1)c1c(C)cc(C)n1[B-]2(F)F
652 nM: IC50 (MDA-MB-231 [1])
264 nM: IC50 (MCF7 [3])
1760 nM: IC50 (T47D)
inactive: Activity [5] | Activity [6] | Activity [7] | Activity [14] | Activity [15] | Activity [16] | Activity [17] | Activity [26] | Activity (MCF7 [28])
active: Activity [8] | Activity [9] | Activity [10] | Activity [11] | Activity [12] | Activity [13] | Activity [18] | Activity [19] | Activity [20] | Activity [21] | Activity [22] | Activity (MCF7 [23]) | Activity [27] | Activity (MCF7 [29])
Toxic: Activity [25]
5.98: fold change (FC) (MCF7 [24])
326 nM: IC50 (MDA-MB-231 [2])
Active: Drug uptake [4]

— ChEMBL document CHEMBL5370648, “Rational Design of Bioorthogonally Activatable PROTAC for Tumor-Targeted Protein Degradation” (J Med Chem, 2023)
